Assay results: ChEMBL document CHEMBL5678807, “A selective jumonji H3K27 demethylase inhibitor modulates the proinflammatory macrophage response” (Nature, 2012)

Columns and labels:
[1] = biological target: Protein deacetylase HDAC6 (Homo sapiens, UniProt Q9UBN7); experiment: Inhibition of human HDAC6 by FLINT assay
[2] = biological target: Histone deacetylase 7 (Homo sapiens, UniProt Q8WUI4); experiment: Inhibition of human HDAC7 by FLINT assay
[3] = tested on: Macrophage; experiment: Cytotoxicity against LPS-induced human primary macrophages assessed as effect on cell viability measured after 4 hrs by WST-1 assay; format: toxicity, cell-based
[4] = biological target: T1, Beta-2 adrenergic receptor (Homo sapiens, UniProt P07550); experiment: Agonist activity at human beta2 adrenoceptor by TR-FRET assay; format: functional
T1 sequence (P07550 whole entry): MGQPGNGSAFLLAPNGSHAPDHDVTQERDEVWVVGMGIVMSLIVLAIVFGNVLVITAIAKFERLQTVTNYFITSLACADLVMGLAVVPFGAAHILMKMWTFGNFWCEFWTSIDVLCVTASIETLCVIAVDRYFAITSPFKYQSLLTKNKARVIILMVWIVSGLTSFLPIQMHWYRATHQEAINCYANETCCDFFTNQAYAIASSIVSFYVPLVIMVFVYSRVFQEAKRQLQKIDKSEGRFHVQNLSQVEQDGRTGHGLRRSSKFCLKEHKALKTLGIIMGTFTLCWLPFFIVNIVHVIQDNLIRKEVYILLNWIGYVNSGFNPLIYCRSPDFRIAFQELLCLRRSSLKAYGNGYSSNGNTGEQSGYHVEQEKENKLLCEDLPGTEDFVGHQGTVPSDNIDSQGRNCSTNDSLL

[5] = biological target: 5-hydroxytryptamine receptor 2A (Homo sapiens, UniProt P28223); experiment: Antagonist activity at human 5-HT2A by intracellular Ca luminescence assay; format: functional, cell-based
5-hydroxytryptamine receptor 2A, sequence (P28223 whole entry): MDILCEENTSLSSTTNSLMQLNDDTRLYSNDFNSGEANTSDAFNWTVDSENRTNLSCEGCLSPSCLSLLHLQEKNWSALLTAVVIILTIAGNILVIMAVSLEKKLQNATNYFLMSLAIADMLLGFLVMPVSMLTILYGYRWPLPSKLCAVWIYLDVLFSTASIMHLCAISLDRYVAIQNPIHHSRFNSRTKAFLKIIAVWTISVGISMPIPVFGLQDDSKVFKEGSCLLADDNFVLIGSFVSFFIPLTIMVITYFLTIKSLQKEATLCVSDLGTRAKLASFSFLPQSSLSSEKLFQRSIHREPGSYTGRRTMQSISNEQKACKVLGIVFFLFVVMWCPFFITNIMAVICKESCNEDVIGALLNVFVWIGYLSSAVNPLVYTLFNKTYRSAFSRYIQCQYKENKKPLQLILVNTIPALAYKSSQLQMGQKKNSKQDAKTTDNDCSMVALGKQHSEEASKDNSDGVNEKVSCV

[6] = biological target: Sodium-dependent serotonin transporter (Homo sapiens, UniProt P31645); experiment: Binding affinity to human SERT by SPA
Sodium-dependent serotonin transporter, sequence (P31645 whole entry): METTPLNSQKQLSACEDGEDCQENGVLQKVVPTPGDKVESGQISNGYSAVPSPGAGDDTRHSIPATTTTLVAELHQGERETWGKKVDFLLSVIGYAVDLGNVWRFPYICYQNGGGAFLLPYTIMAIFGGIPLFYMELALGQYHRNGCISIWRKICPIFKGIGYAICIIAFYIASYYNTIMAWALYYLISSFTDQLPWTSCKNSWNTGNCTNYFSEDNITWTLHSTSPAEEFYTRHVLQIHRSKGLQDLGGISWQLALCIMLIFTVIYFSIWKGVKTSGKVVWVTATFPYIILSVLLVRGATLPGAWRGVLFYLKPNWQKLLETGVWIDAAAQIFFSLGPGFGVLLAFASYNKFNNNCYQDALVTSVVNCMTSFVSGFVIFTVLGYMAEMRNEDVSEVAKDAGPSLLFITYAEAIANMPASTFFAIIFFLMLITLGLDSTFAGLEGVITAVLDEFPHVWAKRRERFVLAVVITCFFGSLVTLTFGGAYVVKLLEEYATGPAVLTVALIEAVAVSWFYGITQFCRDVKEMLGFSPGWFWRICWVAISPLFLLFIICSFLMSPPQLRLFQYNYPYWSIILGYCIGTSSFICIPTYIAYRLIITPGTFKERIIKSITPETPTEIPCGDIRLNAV

[7] = biological target: T2, 5-hydroxytryptamine receptor 2C (Homo sapiens, UniProt P28335); experiment: Agonist activity at human 5-HT2C by intracellular Ca luminescence assay; format: functional, cell-based
T2 sequence (P28335 whole entry): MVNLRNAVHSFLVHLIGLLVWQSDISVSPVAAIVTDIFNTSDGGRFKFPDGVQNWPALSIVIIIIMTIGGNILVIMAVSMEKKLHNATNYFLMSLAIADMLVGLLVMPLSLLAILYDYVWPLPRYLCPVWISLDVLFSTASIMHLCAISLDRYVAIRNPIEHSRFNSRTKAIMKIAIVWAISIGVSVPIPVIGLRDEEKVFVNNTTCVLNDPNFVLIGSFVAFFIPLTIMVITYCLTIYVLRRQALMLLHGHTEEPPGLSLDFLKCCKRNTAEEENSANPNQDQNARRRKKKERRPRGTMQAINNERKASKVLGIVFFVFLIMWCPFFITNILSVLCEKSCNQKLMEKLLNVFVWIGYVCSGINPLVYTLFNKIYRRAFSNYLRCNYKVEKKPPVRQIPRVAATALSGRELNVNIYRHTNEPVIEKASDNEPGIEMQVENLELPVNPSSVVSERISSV

[8] = biological target: T1, Beta-2 adrenergic receptor; experiment: Antagonist activity at human beta2 adrenoceptor by TR-FRET assay; format: functional
[9] = biological target: PXR (NR1I2) (Homo sapiens, UniProt O75469); experiment: Agonist activity at human PXR by luciferase reporter assay
PXR (NR1I2), sequence (O75469 whole entry): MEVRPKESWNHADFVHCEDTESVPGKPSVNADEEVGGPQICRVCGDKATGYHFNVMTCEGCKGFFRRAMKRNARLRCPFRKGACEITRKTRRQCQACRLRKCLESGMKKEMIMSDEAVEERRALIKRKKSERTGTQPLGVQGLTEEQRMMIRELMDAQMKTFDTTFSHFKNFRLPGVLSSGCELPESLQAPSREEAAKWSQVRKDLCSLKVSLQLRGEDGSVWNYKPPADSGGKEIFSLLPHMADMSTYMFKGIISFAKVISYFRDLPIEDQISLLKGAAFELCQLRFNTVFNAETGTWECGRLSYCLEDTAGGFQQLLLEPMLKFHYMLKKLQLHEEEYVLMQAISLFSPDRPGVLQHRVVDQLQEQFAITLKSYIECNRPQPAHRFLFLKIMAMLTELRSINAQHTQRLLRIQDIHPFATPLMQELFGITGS

[10] = biological target: D(2) dopamine receptor (Homo sapiens, UniProt P14416); experiment: Agonist activity at human dopamine 2 by SPA; format: functional
[11] = biological target: T3, Muscarinic acetylcholine receptor M2 (Homo sapiens, UniProt P08172); experiment: Agonist activity at human CHRM2 by intracellular Ca fluorescence assay; format: functional, cell-based
T3 sequence (P08172 whole entry): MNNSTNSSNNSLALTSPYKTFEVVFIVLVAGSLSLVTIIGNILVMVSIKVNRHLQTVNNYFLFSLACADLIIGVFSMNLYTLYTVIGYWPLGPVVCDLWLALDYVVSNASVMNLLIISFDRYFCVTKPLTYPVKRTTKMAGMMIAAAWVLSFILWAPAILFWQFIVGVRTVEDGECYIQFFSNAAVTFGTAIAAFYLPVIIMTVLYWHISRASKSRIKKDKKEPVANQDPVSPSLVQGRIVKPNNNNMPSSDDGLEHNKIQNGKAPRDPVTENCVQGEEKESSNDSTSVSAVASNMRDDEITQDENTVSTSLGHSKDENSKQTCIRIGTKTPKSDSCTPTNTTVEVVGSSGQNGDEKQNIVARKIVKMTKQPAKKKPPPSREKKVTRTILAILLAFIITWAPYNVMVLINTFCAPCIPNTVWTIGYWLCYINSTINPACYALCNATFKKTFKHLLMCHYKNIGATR

[12] = biological target: Aryl hydrocarbon receptor (Homo sapiens, UniProt P35869); experiment: Agonist activity at human AhR by TR-FRET assay
Aryl hydrocarbon receptor, sequence (P35869 whole entry): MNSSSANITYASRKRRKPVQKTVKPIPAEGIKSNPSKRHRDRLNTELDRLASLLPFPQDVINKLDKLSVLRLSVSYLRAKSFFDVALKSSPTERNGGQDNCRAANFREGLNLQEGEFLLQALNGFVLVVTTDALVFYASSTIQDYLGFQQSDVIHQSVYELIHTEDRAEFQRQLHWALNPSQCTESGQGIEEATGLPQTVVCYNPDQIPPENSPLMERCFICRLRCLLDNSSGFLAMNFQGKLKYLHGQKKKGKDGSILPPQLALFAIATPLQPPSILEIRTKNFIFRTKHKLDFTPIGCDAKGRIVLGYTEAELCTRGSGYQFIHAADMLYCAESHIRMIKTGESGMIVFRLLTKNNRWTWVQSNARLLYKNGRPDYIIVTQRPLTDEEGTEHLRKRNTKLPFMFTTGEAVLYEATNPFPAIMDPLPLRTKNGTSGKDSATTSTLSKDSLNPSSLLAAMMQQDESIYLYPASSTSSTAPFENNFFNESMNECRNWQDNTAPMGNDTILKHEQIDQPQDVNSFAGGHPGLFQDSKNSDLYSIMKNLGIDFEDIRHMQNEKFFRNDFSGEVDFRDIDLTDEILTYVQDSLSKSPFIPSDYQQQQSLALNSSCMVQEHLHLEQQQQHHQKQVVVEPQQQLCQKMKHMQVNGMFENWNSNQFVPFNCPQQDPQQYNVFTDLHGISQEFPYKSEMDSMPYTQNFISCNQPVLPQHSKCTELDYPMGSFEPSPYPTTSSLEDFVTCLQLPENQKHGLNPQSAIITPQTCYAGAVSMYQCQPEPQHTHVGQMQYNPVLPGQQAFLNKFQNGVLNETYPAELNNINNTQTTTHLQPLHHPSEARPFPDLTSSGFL

[13] = Drug uptake in human primary macrophage lysates at 30 uM measured after 1 hr by RP LC-MS/MS analysis; format: ADME, subcellular
[14] = biological target: Lysine-specific histone demethylase 1A (Homo sapiens, UniProt O60341); experiment: Inhibition of human LSD-1 by luminescence assay
[15] = biological target: Alpha-1B adrenergic receptor (Homo sapiens, UniProt P35368); experiment: Antagonist activity at human adrenergic alpha 1B by intracellular Ca luminescence assay; format: functional, cell-based
[16] = Agonist activity at human 5-HT3 by intracellular Ca fluorescence assay; format: cell-based
[17] = tested on: Macrophage; experiment: Antiinflammatory activity in human primary macrophages assessed as effect on LPS-induced GDF9 gene expression at 30 uM measured after 2 hrs by RT-PCR array (reference value: 113 a.u.); format: functional
[18] = tested on: Macrophage; experiment: Antiinflammatory activity in human primary macrophages assessed as effect on LPS-induced CD70 gene expression at 30 uM measured after 2 hrs by RT-PCR array (reference value: 2415 a.u.); format: functional
[19] = tested on: Macrophage; experiment: Antiinflammatory activity in human primary macrophages assessed as effect on LPS-induced TNFRSF11B gene expression at 30 uM measured after 2 hrs by RT-PCR array (reference value: 1609 a.u.); format: functional
[20] = tested on: Macrophage; experiment: Antiinflammatory activity in human primary macrophages assessed as effect on LPS-induced INHBA gene expression at 30 uM measured after 2 hrs by RT-PCR array (reference value: 785853 a.u.); format: functional
[21] = tested on: Macrophage; experiment: Antiinflammatory activity in human primary macrophages assessed as effect on LPS-induced LTB gene expression at 30 uM measured after 2 hrs by RT-PCR array (reference value: 6025 a.u.); format: functional
[22] = tested on: Macrophage; experiment: Antiinflammatory activity in human primary macrophages assessed as effect on LPS-induced IL1F10 gene expression at 30 uM measured after 2 hrs by RT-PCR array (reference value: 125 a.u.); format: functional
[23] = tested on: Macrophage; experiment: Antiinflammatory activity in human primary macrophages assessed as effect on LPS-induced PDGFA gene expression at 30 uM measured after 2 hrs by RT-PCR array (reference value: 235 a.u.); format: functional
[24] = tested on: Macrophage; experiment: Antiinflammatory activity in human primary macrophages assessed as effect on LPS-induced IL19 gene expression at 30 uM measured after 2 hrs by RT-PCR array (reference value: 13781 a.u.); format: functional
[25] = tested on: Macrophage; experiment: Antiinflammatory activity in human primary macrophages assessed as effect on LPS-induced TNFSF10 gene expression at 30 uM measured after 2 hrs by RT-PCR array (reference value: 221027 a.u.); format: functional
[26] = tested on: Macrophage; experiment: Antiinflammatory activity in human primary macrophages assessed as effect on LPS-induced BMP2 gene expression at 30 uM measured after 2 hrs by RT-PCR array (reference value: 331 a.u.); format: functional
[27] = tested on: Macrophage; experiment: Antiinflammatory activity in human primary macrophages assessed as effect on LPS-induced IL17C gene expression at 30 uM measured after 2 hrs by RT-PCR array (reference value: 157 a.u.); format: functional
[28] = tested on: Macrophage; experiment: Antiinflammatory activity in human primary macrophages assessed as effect on LPS-induced IFNA1 gene expression at 30 uM measured after 2 hrs by RT-PCR array (reference value: 462 a.u.); format: functional
[29] = tested on: Macrophage; experiment: Antiinflammatory activity in human primary macrophages assessed as effect on LPS-induced IL10 gene expression at 30 uM measured after 2 hrs by RT-PCR array (reference value: 47621 a.u.); format: functional

Protein deacetylase HDAC6, sequence (Q9UBN7 whole entry): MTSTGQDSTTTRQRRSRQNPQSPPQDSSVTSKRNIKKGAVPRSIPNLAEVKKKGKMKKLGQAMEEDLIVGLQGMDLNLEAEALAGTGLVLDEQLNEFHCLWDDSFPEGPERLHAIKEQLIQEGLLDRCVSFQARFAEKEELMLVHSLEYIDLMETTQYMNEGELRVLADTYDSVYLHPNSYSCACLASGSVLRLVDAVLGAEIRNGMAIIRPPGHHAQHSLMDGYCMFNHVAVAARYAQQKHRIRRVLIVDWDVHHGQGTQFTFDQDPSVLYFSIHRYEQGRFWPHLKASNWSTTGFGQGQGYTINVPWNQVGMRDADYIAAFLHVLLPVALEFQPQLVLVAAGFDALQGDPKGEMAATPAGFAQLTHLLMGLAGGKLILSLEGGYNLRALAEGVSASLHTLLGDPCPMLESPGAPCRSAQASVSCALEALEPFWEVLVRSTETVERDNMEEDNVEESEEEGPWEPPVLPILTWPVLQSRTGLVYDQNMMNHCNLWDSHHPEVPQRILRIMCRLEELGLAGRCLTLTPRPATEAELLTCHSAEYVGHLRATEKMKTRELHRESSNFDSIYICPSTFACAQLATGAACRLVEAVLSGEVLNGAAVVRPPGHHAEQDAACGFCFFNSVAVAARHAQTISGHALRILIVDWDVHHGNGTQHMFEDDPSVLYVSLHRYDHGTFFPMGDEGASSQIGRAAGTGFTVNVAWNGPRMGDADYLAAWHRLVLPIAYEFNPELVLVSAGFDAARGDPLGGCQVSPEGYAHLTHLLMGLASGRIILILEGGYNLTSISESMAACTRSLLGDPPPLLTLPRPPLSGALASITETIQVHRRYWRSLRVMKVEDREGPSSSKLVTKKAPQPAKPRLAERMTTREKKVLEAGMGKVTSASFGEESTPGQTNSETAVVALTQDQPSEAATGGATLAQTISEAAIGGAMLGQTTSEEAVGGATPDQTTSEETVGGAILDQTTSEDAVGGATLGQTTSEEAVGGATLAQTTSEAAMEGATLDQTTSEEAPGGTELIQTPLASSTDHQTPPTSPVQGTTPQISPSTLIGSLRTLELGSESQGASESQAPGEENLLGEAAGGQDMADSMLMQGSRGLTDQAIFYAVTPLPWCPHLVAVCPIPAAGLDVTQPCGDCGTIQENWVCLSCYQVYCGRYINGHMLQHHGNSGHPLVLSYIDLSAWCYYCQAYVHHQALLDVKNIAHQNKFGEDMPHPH
Histone deacetylase 7, sequence (Q8WUI4 whole entry): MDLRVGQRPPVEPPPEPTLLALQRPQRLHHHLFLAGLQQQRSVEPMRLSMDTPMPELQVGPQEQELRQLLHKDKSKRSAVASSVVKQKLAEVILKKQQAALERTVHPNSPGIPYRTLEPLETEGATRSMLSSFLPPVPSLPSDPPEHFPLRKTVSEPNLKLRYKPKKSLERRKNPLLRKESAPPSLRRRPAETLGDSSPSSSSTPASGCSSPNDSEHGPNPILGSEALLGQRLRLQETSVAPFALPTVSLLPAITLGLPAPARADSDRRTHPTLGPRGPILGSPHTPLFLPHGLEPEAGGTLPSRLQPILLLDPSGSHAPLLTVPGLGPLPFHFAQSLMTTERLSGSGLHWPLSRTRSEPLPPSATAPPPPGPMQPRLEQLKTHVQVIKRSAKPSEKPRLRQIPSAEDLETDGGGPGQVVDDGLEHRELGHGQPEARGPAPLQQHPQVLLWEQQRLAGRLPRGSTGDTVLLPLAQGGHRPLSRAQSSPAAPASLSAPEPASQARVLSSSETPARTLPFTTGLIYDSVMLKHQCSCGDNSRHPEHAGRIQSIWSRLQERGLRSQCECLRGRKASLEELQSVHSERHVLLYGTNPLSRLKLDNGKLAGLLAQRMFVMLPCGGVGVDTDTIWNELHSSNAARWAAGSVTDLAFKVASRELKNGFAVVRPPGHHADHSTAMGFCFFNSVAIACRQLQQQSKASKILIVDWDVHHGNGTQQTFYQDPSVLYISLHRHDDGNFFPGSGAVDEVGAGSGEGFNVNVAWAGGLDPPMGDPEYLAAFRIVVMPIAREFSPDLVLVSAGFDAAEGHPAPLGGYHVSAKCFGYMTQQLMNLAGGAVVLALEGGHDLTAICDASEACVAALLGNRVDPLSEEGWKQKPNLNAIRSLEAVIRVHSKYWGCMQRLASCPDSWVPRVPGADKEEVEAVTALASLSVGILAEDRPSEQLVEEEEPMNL

Row | Structure (SMILES) | XC50 [1] [µM] | XC50 [2] [µM] | Activity [3] | XC50 [4] [µM] | XC50 [5] [µM] | XC50 [6] [µM] | XC50 [7] [µM] | XC50 [8] [µM] | XC50 [9] [µM] | XC50 [10] [µM] | XC50 [11] [µM] | XC50 [12] [µM] | Drug uptake [13] [µM] | XC50 [14] [µM] | XC50 [15] [µM] | XC50 [16] [µM] | Activity [17] [a.u.] | Activity [18] [a.u.] | Activity [19] [a.u.] | Activity [20] [a.u.] | also measured
1 | O=C(O)CCNc1cc(N2CCc3ccccc3CC2)nc(-c2cccnc2)n1 | > 300 | > 300 | Non-Toxic | > 32 | > 40 | > 100 | > 40 | > 32 | 10 | > 100 | > 16 | 0.32 | 7.8 | > 125 | > 40 | > 50 | – | – | – | – | –
2 | O=C(O)CCNc1cc(N2CCc3ccccc3CC2)nc(-c2ccccn2)n1 | > 300 | > 300 | Non-Toxic | > 32 | > 40 | > 100 | > 40 | > 32 | > 50 | > 100 | > 16 | > 100 | 1.6 | > 125 | > 40 | > 50 | – | – | – | – | –
3 | CCOC(=O)CCNc1cc(N2CCc3ccccc3CC2)nc(-c2ccccn2)n1 | – | – | Non-Toxic | – | – | – | – | – | – | – | – | – | – | – | – | – | 15 | 334 | 267 | 157533 | Activity [21]: 5493 a.u.; Activity [22]: 11 a.u.; Activity [23]: 392 a.u.; Activity [24]: 1216 a.u.; Activity [25]: 39793 a.u.; Activity [26]: 3 a.u.; Activity [27]: 107 a.u.; Activity [28]: 285 a.u.; Activity [29]: 4765 a.u.
4 | CCOC(=O)CCNc1cc(N2CCc3ccccc3CC2)nc(-c2cccnc2)n1 | – | – | Non-Toxic | – | – | – | – | – | – | – | – | – | – | – | – | – | 64 | 1003 | 784 | 558833 | Activity [21]: 5856 a.u.; Activity [22]: 102 a.u.; Activity [23]: 239 a.u.; Activity [24]: 1914 a.u.; Activity [25]: 132521 a.u.; Activity [26]: 347 a.u.; Activity [27]: 253 a.u.; Activity [28]: 835 a.u.; Activity [29]: 31748 a.u.
